From US11608335B2, “Somatostatin modulators and uses thereof” (CRINETICS PHARMACEUTICALS, INC., priority 2018, dated 2023)

target: human somatostatin receptor subtype 5 (Homo sapiens, UniProt P35346); assay: cAMP assay for SST5R (inhibition of cAMP via human SST5 receptor); conditions: not given
Sequence (P35346 whole entry): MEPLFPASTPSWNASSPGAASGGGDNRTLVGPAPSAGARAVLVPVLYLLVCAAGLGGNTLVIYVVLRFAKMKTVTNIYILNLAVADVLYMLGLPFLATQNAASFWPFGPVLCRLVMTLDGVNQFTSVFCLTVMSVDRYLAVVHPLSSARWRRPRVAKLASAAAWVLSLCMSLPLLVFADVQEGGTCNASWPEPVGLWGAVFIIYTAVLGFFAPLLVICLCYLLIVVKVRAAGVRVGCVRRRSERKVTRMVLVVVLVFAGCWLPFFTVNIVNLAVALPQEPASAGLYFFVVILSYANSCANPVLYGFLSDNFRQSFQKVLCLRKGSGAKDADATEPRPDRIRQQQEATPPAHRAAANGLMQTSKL

With `N#Cc1cccc(-c2cncc(-c3nc4cccc(F)c4[nH]3)c2N2C[C@@H](N)[C@H](c3ccccc3)C2)c1` (racemic) [Compound 2-56, 3-{4-[trans-3-amino-4-phenylpyrrolidin-1-yl]-5-(4-fluoro-1H-1,3-benzodiazol-2-yl)pyridin-3-yl}benzonitrile] as the molecule, how does the EC50 read?
The EC50 was 100 to 1000 nM.

For `N#Cc1cccc(-c2cncc(-c3nc4cccc(F)c4[nH]3)c2N2C[C@@H](N)[C@@H](O)C2)c1` (racemic) [Compound 2-68, 3-{4-[cis-3-amino-4-hydroxypyrrolidin-1-yl]-5-(4-fluoro-1H-1,3-benzodiazol-2-yl)pyridin-3-yl}benzonitrile], which EC50 is on record?
Its EC50 is 10 to 100 nM.

For `N#Cc1cccc(-c2cncc(-c3nc4c(F)cccc4[nH]3)c2N2C[C@@H](N)[C@H](C(N)=O)C2)c1` (racemic) [Compound 2-69, trans-4-amino-1-[3-(3-cyanophenyl)-5-(4-fluoro-1H-1,3-benzodiazol-2-yl)pyridin-4-yl]pyrrolidine-3-carboxamide], which EC50 is on record?
The EC50 was greater than 1000 nM.

With `N#Cc1cccc(-c2cncc(-c3nc4c(F)cccc4[nH]3)c2N2C[C@@H](N)[C@H](O)C2)c1` (racemic) [Compound 2-81, 3-{4-[trans-3-amino-4-hydroxypyrrolidin-1-yl]-5-(4-fluoro-1H-1,3-benzodiazol-2-yl)pyridin-3-yl}benzonitrile] as the molecule, how does the EC50 read?
Its EC50 is 10 to 100 nM.

For `N#Cc1cccc(-c2cncc(-c3nc4cccc(F)c4[nH]3)c2N2C[C@H](CO)[C@@H](N)C2)c1` (racemic) [Compound 2-89, 3-{4-[trans-3-amino-4-(hydroxymethyl)pyrrolidin-1-yl]-5-(4-fluoro-1H-1,3-benzodiazol-2-yl)pyridin-3-yl}benzonitrile], which EC50 is on record?
Its EC50 is 10 to 100 nM.

For `Cc1cc(F)cc(-c2cncc(-c3nc4cc(C#N)ccc4[nH]3)c2N2CC(CN)C2)c1` [Compound 1-8, 2-{4-[3-(aminomethyl)azetidin-1-yl]-5-(3-fluoro-5-methylphenyl)pyridin-3-yl}-1H-1,3-benzodiazole-5-carbonitrile], which EC50 is on record?
The EC50 was 100 to 1000 nM.

`COc1ccc2[nH]c(-c3cncc(-c4cc(C)cc(F)c4)c3N3CC(CN)C3)nc2c1` [Compound 1-12, 1-{1-[3-(3-fluoro-5-methylphenyl)-5-(5-methoxy-1H-1,3-benzodiazol-2-yl)pyridin-4-yl]azetidin-3-yl}methanamine] was tested. Which EC50 did it give?
The EC50 was 100 to 1000 nM.

With `Cc1cc(F)cc(-c2cncc(-c3nc4cc(F)c(F)cc4[nH]3)c2N2CC(CN)C2)c1` [Compound 1-13, 1-{1-[3-(5,6-difluoro-1H-1,3-benzodiazol-2-yl)-5-(3-fluoro-5-methylphenyl)pyridin-4-yl]azetidin-3-yl}methanamine] as the molecule, how does the EC50 read?
Its EC50 is 10 to 100 nM.

Which EC50 does the source give for `Cc1cc(F)cc(-c2cncc(-c3nc4cc(F)c(Cl)cc4[nH]3)c2N2CC(CN)C2)c1` [Compound 1-14, 1-{1-[3-(5-chloro-6-fluoro-1H-1,3-benzodiazol-2-yl)-5-(3-fluoro-5-methylphenyl)pyridin-4-yl]azetidin-3-yl}methanamine] here?
Its EC50 is 10 to 100 nM.

Which EC50 does the source give for `COc1cc(F)cc2nc(-c3cncc(-c4cc(C)cc(F)c4)c3N3CC(CN)C3)[nH]c12` [Compound 1-15, 1-{1-[3-(6-fluoro-4-methoxy-1H-1,3-benzodiazol-2-yl)-5-(3-fluoro-5-methylphenyl)pyridin-4-yl]azetidin-3-yl}methanamine] here?
The EC50 was 10 to 100 nM.

Which EC50 does the source give for `Cc1cc(F)cc(-c2cncc(-c3nc4cc(C#N)cc(F)c4[nH]3)c2N2CC(CN)C2)c1` [Compound 1-16, 2-{4-[3-(aminomethyl)azetidin-1-yl]-5-(3-fluoro-5-methylphenyl)pyridin-3-yl}-4-fluoro-1H-1,3-benzodiazole-6-carbonitrile] here?
The EC50 was 100 to 1000 nM.

Which EC50 does the source give for `Cc1cc(F)cc(-c2cncc(-c3nc4cc(C#N)c(F)cc4[nH]3)c2N2CC(CN)C2)c1` [Compound 1-17, 2-{4-[3-(aminomethyl)azetidin-1-yl]-5-(3-fluoro-5-methylphenyl)pyridin-3-yl}-6-fluoro-1H-1,3-benzodiazole-5-carbonitrile] here?
Its EC50 is 100 to 1000 nM.

same assay, conditions: SST5 over SST2, given as number (comparison compounds)

For `COc1cc(Cl)cc2[nH]c(-c3cncc(-c4cc(C)cc(F)c4)c3N3CCC(N)CC3)nc12`, which “Fold selectivity for SST5 vs SST2” value is on record?
The value was 0.00004.
